Test results as given in patent US20230054895A1, “METHODS FOR INDUCING BIOSTASIS IN A CELL, TISSUE OR ORGAN” (PRESIDENT AND FELLOWS OF HARVARD COLLEGE, priority 2020, published 2023).
Entries after “also recorded” stand apart in the source; their conditions may differ. Where a name gives a salt, the structure may show the parent alone. Read-outs that look alike come from different tables or passages of the source.

Key:
[1] = test system: Xenopus tadpoles; assay: Oxygen consumption of Xenopus tadpoles and embryos; type: in vivo, Xenopus laevis
[2] = test system: Xenopus tadpoles; type: in vivo; conditions: 50 uM for 30 min, recovery, tested over 24 h
Protocol: Tadpoles were then tested over a 24 h period in an automated behavior and cognitive testing platform to measure cognitive or motor function.
Finally, the cognitive and motor function performance of Xenopus tadpoles treated with Donepezil was assessed. […] Following the onset of stasis, the drug was removed and tadpoles were allowed to recover. Tadpoles were then tested over a 24 hour period in an automated behavior and cognitive testing platform to measure whether tadpoles that previously went through stasis had decreased cognitive and motor function performance.

[3] = test system: Xenopus embryos
Source text: Developed tail length assay are used to assess embryo tail development during drug contact.
Automated embryo culture and imaging platform with machine vision processing. Analysis pipeline allows screening scale-up to hundreds of embryos at a given time.
The effects of ^2H2O on metabolism were examined in relation to biostasis in vivo. Xenopus embryos were contacted with 0.1×MMR media prepared with various concentrations of ^2H2O.

[4] = test system: Xenopus tadpoles; assay: Movement / swimming of Xenopus tadpoles (stasis and reversal); type: in vivo, Xenopus laevis
Protocol: This slowing of motion is reversible; average movement of the Xenopus tadpoles is returned to pre-treatment levels following removal of Donepezil. […] The drug is removed at 30 minutes, as indicated by the hash-line. Movement resumed within 50 min after drug removal.
To determine if this slowing of movement is reversible, the drug was removed from the culture medium after 30 minutes (denoted by the hashed-line). Movement resumed at the pre-treatment level within 50 min after drug removal.
The effects of SNC-80 and the NCX1 inhibitor KB-R7943 mesylate (also referred to herein as “WC-60) were evaluated alone and in combination. Tadpoles were exposed to SNC-80 at 25 μM for 24 hr continuously, and swimming was assessed. […] Similarly, no effect on oxygen consumption was observed when tadpoles were exposed to KB-R7943 mesylate at 35 uM for 24 h continuously (FIG. 25B).

[5] = test system: rats; conditions: via delta-2 opioid receptor; cited from earlier work
[6] = test system: Xenopus tadpoles; assay: Movement / swimming of Xenopus tadpoles (stasis and reversal); type: in vivo, Xenopus laevis; remark: listed apart in the source
[7] = high doses; cited from earlier work
[8] = test system: Caco-2 cells; assay: Intracellular ATP in Caco-2 cells; type: cell-based
[9] = test system: Caco-2 cells; assay: NAD/NADH live reporting in Caco-2 cells; type: cell-based; conditions: 100 uM, p<0.0005, comparable to positive control sodium oxamate
[10] = test system: Caco-2 cells; assay: Respiration / oxygen utilization in Caco-2 cells; type: cell-based
[11] = test system: mice; conditions: FIG. 1, Rawls and Cowan 2006; cited from earlier work
[12] = test system: Xenopus tadpoles; assay: Oxygen consumption of Xenopus tadpoles and embryos; type: in vivo, Xenopus laevis; remark: listed apart in the source
Source text: Dynamic drug dosing used to examine stasis control parameters (10 tadpoles/chamber, n=3 replicates).
The oxygen consumption assay described herein above was used.

[13] = test system: pig hind limb; assay: Pig hind limb ex vivo perfusion on ULiSSES Platform (biostasis of a pig limb)
Protocol: Protocol for Evaluating the Effect of an Agent on Inducing Biostasis of a Pig Limb.
The establishment of biostasis in a mammal according to the methods described herein was evaluated in a pig limb model. Prior to removing a hind limb from the animal, a pre-operation blood draw was preformed to obtain a baseline. The hind limb was removed via an amputation, and four muscle biopsies were immediately taken. For use in RT-PCR, a first biopsy was stored at −80° C. to preserve RNA integrity. For histology, a second biopsy was fixed in formalin and stored at 2-4° C. or at room temperature. For use in ELISA, a third biopsy was snap frozen and stored at −80° C. Finally, in lieu of Microdialysis, a fourth biopsy was snap frozen and stored at −80° C.
The limb was first flushed with 4° C. heparinized Krebs Henseleit Buffer alone. The limb was then weighed and attached to the ULiSSES Platform. The Platform was run subnormothermic relative to […] (e.g., 18-23° C.). During the protocol, the limb was perfused with buffer alone (control) or buffer with SNC-80. Further description of the ULiSSES Platform can be found on the world wide web at www.techbriefs.com/component/content/article/tb/stories/blog/35406.
Following the limb being attached to the platform (time 0 hour), an RNA-preserving biopsy, a formalin-fixed biopsy, and a snap frozen biopsy were taken, and a perfusate sample was also taken. The “perfusate sample” is a sample that is assessed for arterial and […] blood gases, and subjected to a blood chemistry panel to measure sodium, potassium, glucose, and lactate levels. The perfusate sample is further snap frozen for other analyses, including RNAseq and cytokine analysis.
These sampling steps were further repeated at times 3 hours, 6 hours, 12 hours, and 24 hours. At times 9 hours, 15 hours, 18 hours, and 21 hours, a perfusate sample was taken.
The protocol was completed at time 24 hours. The limb was removed from the ULiSSES Platform and weighed. Separate, proof of concept experiments were performed as described above, but were completed at time 6 hours.

[14] = test system: tadpoles; assay: Life span of tadpoles in low-oxygen environments; type: in vivo, Xenopus; conditions: 50% ^2H2O-treated tadpoles; MMR controls 6 hours
Protocol: At the indicated consumption rate, ^2H2O-treated tadpoles survive for >30 hours as compared to 6 hours for MMR controls.

[15] = test system: Xenopus tadpoles; assay: Recovery from Donepezil-induced biostasis in tadpoles (tail length, oxygen consumption); type: in vivo; conditions: 50 mM kestose in MMR vs MMR alone
Protocol: To determine if an agent plays a role in accelerating recovery following induction of biostasis, tadpoles can be treated with a biostasis-inducing agent as described herein, to induce biostasis and then transferred to a medium containing a test agent, or just medium. Recovery is assessed by assessing development rate following recovery (e.g., by measuring tadpole tail length), movement, and oxygen consumption.

[16] = 25 μM SNC-80, 24 hr continuously
[17] = compared to control treated limb
[18] = perfusate, vs control treatment
[19] = prior to and following treatment
[20] = 50% ^2H2O, 4 days biostasis, 3 days of recovery

With `CCN(CC)CCCN(c1ccccc1)C1Cc2ccccc2C1` [Aprindine] the “oxygen consumption of free swimming tadpoles” value ([1]; 25 uM, after 20 min of exposure, vs vehicle controls) was “decreased oxygen consumption”.
With `COc1cc2c(cc1OC)C(=O)C(CC1CCN(Cc3ccccc3)CC1)C2` (stereo not shown) [Donepezil, 2-((1-Benzylpiperidin-4-yl)methyl)-5,6-dimethoxy-2,3-dihydro-1H-inden-1-one] the cognitive performance [2] was “may have slightly improved cognitive performance”, the tail length ([3]; Xenopus tadpoles, compared to vehicle control or SNC-80) was “reduced tail length” and the “time to slowing of motion after drug addition” value ([4]; 50 uM Donepezil) was no more than 10 min. For the same compound, the “time to resumption of movement after drug removal” value ([4]; 50 uM Donepezil removed at 30 minutes) was no more than 50 min.
In the case of `N=C(N)SCCc1ccc(OCc2ccc([N+](=O)[O-])cc2)cc1` [KB-R7943 mesylate], the swimming ([4]; KB-R7943 mesylate, data not shown) was “decreased swimming”, the “oxygen consumption in tadpoles” value ([1]; 35 μM KB-R7943 mesylate, 24 h continuously) was “no effect” and the “oxygen consumption in tadpoles” value ([1]; 35 μM KB-R7943 mesylate, 24 h continuously, listed as KB-R7943 Mesylate) was “No change”.
In the case of `Oc1ccc2c3c1O[C@H]1c4[nH]c5ccccc5c4C[C@@]4(O)[C@@H](C2)N(CC2CC2)CC[C@]314` [Naltrindole], the “blocking of the stasis-inducing effects of SNC-80” value ([1]; concentrations up to 100 uM, 4 h of exposure) was “does not block”.
In the case of `C=CCN1C[C@H](C)N([C@H](c2ccc(C(=O)N(CC)CC)cc2)c2cccc(OC)c2)C[C@H]1C` [SNC-80, (+)-4-[(αR)-α-((2S,5R)-4-Allyl-2,5-dimethyl-1-piperazinyl)-3-methoxybenzyl]-N,N-diethylbenzamide], the hypothermia [5] is listed as “induce hypothermia”, the “biostatic effect in Xenopus laevis tadpoles” value ([6]; FIG. 8) is listed as “reversible biostatic effect” and the “concentration resulting in arrest of tadpole movement” value ([6]; Xenopus tadpoles) is listed as greater than 100 µM. The “movement of whole animals” value ([6]; high-dose administration) was “completely arrested”, the convulsions [7] was “produces convulsions at high doses” and the “intracellular ATP” value [8] was “reduction in intracellular ATP levels”. For the same compound, the “intracellular ATP” value ([8]; listed as SNC80) was “reduces intracellular ATP”, the NAD/NADH ratio [9] was “significant increase” and the “respiration / oxygen utilization” value [10] was “did not inhibit oxygen utilization”. For the same compound, the “respiration / oxygen utilization” value ([10]; listed as SNC80) was “respiration unchanged”, the “reduction of embryo length compared to control” value ([3]; 0.4 μM SNC-80 (n=5) vs control (n=6), end of dosing period t=48 h) was 19.8% and the “embryo length after drug removed” value ([3]; 0.4 μM SNC-80, after drug removal) was “caught up to controls”. For the same compound, the induction of biostasis ([4]; 25 μM SNC-80) was “not sufficient to induce biostasis”, the swimming [4, 16] was “normal swimming” and the “reversibility of movement arrest” value ([4]; removal / withdrawal of the drug) was “reversed upon withdrawal of the drug; also recorded: reversed by removal of the drug”. For the same compound, the hypothermia [11] was “induces hypothermia”, the “delay in impacting oxygen metabolism” value ([12]; 60 μM dose, dynamic dosing, 10 tadpoles/chamber, n=3) was roughly 10 min and the “oxygen consumption and other metrics of metabolic rate” value ([12]; healthy tissues and Xenopus tadpoles, dose dependence) was “dose-dependent reduction in oxygen consumption”. The “relative metabolic rate in hind limb” value ([13]; 3 hours post treatment, slope vs control P<0.0001) was “marked reduction of metabolic rate; also recorded: noticeable reduction”, the “oxygen uptake in hind limb” value ([13]; 10 hours post-treatment, vs control treated limb) was “noticeable reduction” and the “oxygen uptake in hind limb” value ([13]; 24 hours post-treatment, vs control treated limb) was “marked reduction”. For the same compound, the “change in mass of limb prior to and following treatment” value [13, 17] was “larger change in a mass; also recorded: greater difference”, the “oxygen uptake in hind limb” value [13, 17] was “markedly reduces oxygen uptake” and the “oxygen uptake levels relative to hypothermic conditions” value ([13]; data not shown) was “greater extent than hypothermic conditions”. The glucose level [13, 18] was “No change; also recorded: not a marked difference”, the lactate level [13, 18] was “No change; also recorded: not a marked difference” and the potassium level [13, 18] was “No change; also recorded: not a marked difference”. For the same compound, the “glycogen content inside the cells (PAS, optical density)” value [13, 19] was “remains at a basal level”, the “intercellular edema (histology of limb muscle)” value [13, 19] was “increase in intercellular edema” and the “muscle bundle area (histology)” value [13, 19] was “did not increase significantly”. The “relative metabolic rate in hind limb” value ([13]; vs control (perfusion medium alone)) was “markedly reduces metabolic rate”, the “oxygen consumption in tadpoles” value [1, 16] was “No change; also recorded: normal” and the “oxygen consumption of embryos” value ([1]; Xenopus embryos, FIG. 7) was “reduces oxygen consumption”. For the same compound, the “oxygen consumption in tadpoles” value ([1]; stasis inducing concentration of SNC-80 in combination with 100 uM Naltrindole) was “remains decreased”.
In the case of `[2H]O[2H]` [^2H2O, Deuterium oxide], the “time to slowed swimming” value ([6]; 50% ^2H2O) was no more than 10 min, the “concentrations that were toxic” value ([6]; tadpoles) was greater than 70% and the “swimming after return to normal media” value ([6]; without ^2H2O, data not shown) was “returned to normal”. For the same compound, the embryo length ([3]; 50% ^2H2O in 0.1×MMR) was “marked reduction in embryo length”, the “adverse effects after recovery” value [3, 20] was “do not exhibit adverse effects” and the “developmental state after recovery” value [3, 20] was “remain developmentally delayed”. For the same compound, the “concentrations with no effect on tail length” value ([3]; Xenopus embryos) was less than 50%, the “concentrations that were toxic” value ([3]; Xenopus embryos, data not shown) was greater than 70% and the “concentrations with no effect on swimming” value ([4]; tadpoles) was less than 50%. The “survival in low-oxygen environment at the indicated consumption rate” value [14] was greater than 30 h and the “oxygen consumption of embryos” value ([1]; 50% ^2H2O, within hours of contact) was “reduced oxygen consumption”.
With `OC[C@H]1O[C@@](CO)(OC[C@@]2(O[C@H]3O[C@H](CO)[C@@H](O)[C@H](O)[C@H]3O)O[C@H](CO)[C@@H](O)[C@@H]2O)[C@@H](O)[C@@H]1O` [kestose] the “recovery from biostasis induced via Donepezil” value [15] was “faster recovery”.
